The text below walks through data of patent US11590139B2, “Substituted aminopurine compounds, compositions thereof, and methods of treatment therewith” (Signal Pharmaceuticals, LLC, priority 2014, dated 2023).

One experiment concerns Lox-IMVI melanoma cell line. The experiment is described as follows: Lox-IMVI anti-proliferative assay (growth inhibition, Cell Titer-Glo). In kind it is cell-based, human. As to conditions: Homo sapiens; IC50 activity level in the cell-based Lox-IMVI anti-proliferative assay; read-out: Activity. The method, boiled down:
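Growth inhibition is assessed over 72 h in RPMI + 10% FBS at 0.2% DMSO, with ATP-based luminescence used as the viability measure. IC50 is fitted from normalized dose-response data.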
`NC(=O)[C@H]1CC[C@@H](n2c(Nc3c(F)cc(Cl)cc3F)nc3cnc(N[C@@H]4CCC[C@H](O)C4)nc32)CC1` [Example 352, (1S,4s)-4-(8-(4-chloro-2,6-difluorophenylamino)-2-((1R,3S)-3-hydroxycyclohexylamino)-9H-purin-9-yl)cyclohexanecarboxamide]: the IC50 fell in the range of 500 to 1000 nM.
On the same count and under the same terms, the value for `CC(C)(C)OC(=O)N1CC[C@H](Nc2ncc3nc(Nc4c(F)cccc4F)n([C@H]4CC[C@@H](C(N)=O)CC4)c3n2)[C@H](F)C1` [Example 128, (3R,4S)-tert-butyl 4-(9-((1s,4R)-4-carbamoylcyclohexyl)-8-(2,6-difluorophenylamino)-9H-purin-2-ylamino)-3-fluoropiperidine-1-carboxylate] was > 1000 nM; that for `NC(=O)[C@H]1CC[C@@H](n2c(Nc3c(F)cc(F)cc3Cl)nc3cnc(NC4CC5(COC5)C4)nc32)CC1` [Example 175, (1s,4s)-4-(2-(2-oxaspiro[3.3]heptan-6-ylamino)-8-(2-chloro-4,6-difluorophenylamino)-9H-purin-9-yl)cyclohexanecarboxamide] was 500 to 1000 nM.
Still for that read-out and setting: the value for `NC(=O)[C@H]1CC[C@@H](n2c(Nc3c(F)cccc3F)nc3cnc(N[C@H]4CCOC[C@@H]4F)nc32)CC1` [Example 247, (1R,4s)-4-(8-(2,6-difluorophenylamino)-2-((3R,4S)-3-fluorotetrahydro-2H-pyran-4-ylamino)-9H-purin-9-yl)cyclohexanecarboxamide] was > 1000 nM; that for `Cc1ccc(F)c(Nc2nc3cnc(NC4CCOCC4)nc3n2[C@H]2CC[C@@H](C(N)=O)CC2)c1Cl` [Example 91, (1s,4s)-4-(8-(2-chloro-6-fluoro-3-methylphenylamino)-2-(tetrahydro-2H-pyran-4-ylamino)-9H-purin-9-yl)cyclohexanecarboxamide] was > 1000 nM.
Still for that read-out and setting: the same measure for `NC(=O)[C@H]1CC[C@@H](n2c(Nc3c(F)cccc3F)nc3cnc(N[C@@H]4CCOC[C@H]4F)nc32)CC1` [Example 275, (1S,4s)-4-(8-(2,6-difluorophenylamino)-2-((3S,4R)-3-fluorotetrahydro-2H-pyran-4-ylamino)-9H-purin-9-yl)cyclohexanecarboxamide]: 250 to 500 nM; for `NC(=O)[C@H]1CC[C@@H](n2c(Nc3ccc(Cl)c(F)c3F)nc3cnc(N[C@H]4CCC[C@@H](O)C4)nc32)CC1` [Example 375, (1R,4s)-4-(8-(4-chloro-2,3-difluorophenylamino)-2-((1S,3R)-3-hydroxycyclohexylamino)-9H-purin-9-yl)cyclohexanecarboxamide]: > 1000 nM.
Consider `NC(=O)[C@H]1CC[C@@H](n2c(Nc3c(Cl)cc(Cl)cc3Cl)nc3cnc(NC4COCC4O)nc32)CC1` (some centres unmarked) [Example 181, (1s,4s)-4-(2-(4-hydroxytetrahydrofuran-3-ylamino)-8-(2,4,6-trichlorophenylamino)-9H-purin-9-yl)cyclohexanecarboxamide], for which the IC50 lay in the range of 500 to 1000 nM.
Same read-out and setting: the same measure for `NC(=O)[C@H]1CC[C@@H](n2c(Nc3ccc(F)c(F)c3F)nc3cnc(N[C@@H]4CCC[C@H]4O)nc32)CC1` [Example 264, (1S,4s)-4-(2-((1R,2R)-2-hydroxycyclopentylamino)-8-(2,3,4-trifluorophenylamino)-9H-purin-9-yl)cyclohexanecarboxamide]: > 1000 nM; for `NC(=O)[C@H]1CC[C@@H](n2c(Nc3c(Cl)cc(Cl)cc3Cl)nc3cnc(NC4CCC(F)(F)CC4)nc32)CC1` [Example 88, (1s,4s)-4-(2-(4,4-difluorocyclohexylamino)-8-(2,4,6-trichlorophenylamino)-9H-purin-9-yl)cyclohexanecarboxamide]: 500 to 1000 nM.

Staying with this experiment, now noted: Homo sapiens; Lox-IMVI anti-proliferative assay, IC50 activity level; read-out: Activity.
`CC(C)(CO)CNc1ncc2nc(Nc3c(Cl)cc(C#N)cc3Cl)n([C@H]3CC[C@@H](C(N)=O)CC3)c2n1` [Example 482, (1s,4s)-4-(8-(2,6-dichloro-4-cyanophenylamino)-2-(3-hydroxy-2,2-dimethylpropylamino)-9H-purin-9-yl)cyclohexanecarboxamide]: the IC50 is > 1000 nM.
For `C[C@H]1COCC[C@@H]1Nc1ncc2nc(Nc3c(Cl)cc(Cl)cc3Cl)n([C@H]3CC[C@@H](C(N)=O)CC3)c2n1` [Example 500, (1R,4s)-4-(2-((3R,4S)-3-methyltetrahydro-2H-pyran-4-ylamino)-8-(2,4,6-trichlorophenylamino)-9H-purin-9-yl)cyclohexanecarboxamide], the IC50 was in the range of 500 to 1000 nM.
Same read-out and setting: the same measure for `C[C@]1(C(N)=O)CC[C@H](n2c(Nc3c(Cl)cc(F)cc3Cl)nc3cnc(NC4CCC(F)(F)CC4)nc32)CC1` [Example 476, (1r,4r)-4-(8-(2,6-dichloro-4-fluorophenylamino)-2-(4,4-difluorocyclohexylamino)-9H-purin-9-yl)-1-methylcyclohexanecarboxamide]: > 1000 nM; for `COC(=O)N1CCCC(Nc2ncc3nc(Nc4c(F)cc(F)cc4F)n([C@H]4CC[C@@H](C(N)=O)CC4)c3n2)C1` (stereo partly drawn) [Example 403, (R)-methyl 3-(9-((1s,4S)-4-carbamoylcyclohexyl)-8-(2,4,6-tnfluorophenylamino)-9H-purin-2-ylamino)piperidine-1-carboxylate]: > 1000 nM; for `COC(=O)N1CCC[C@@H](Nc2ncc3nc(Nc4ccc(Cl)c(F)c4F)n([C@H]4CC[C@@H](C(N)=O)CC4)c3n2)C1` [Example 411, (R)-methyl 3-(9-((1s,4S)-4-carbamoylcyclohexyl)-8-(4-chloro-2,3 difluorophenylamino)-9H-purin-2-ylamino)piperidine-1-carboxylate]: > 1000 nM.
On the same count and under the same terms, the value for `COC(=O)N1CCCC(Nc2ncc3nc(Nc4c(F)cccc4F)n([C@H]4CC[C@@H](C(N)=O)CC4)c3n2)C1` (stereo partly drawn) [Example 404, (R)-methyl 3-(9-((1s,4S)-4-carbamoylcyclohexyl)-8-(2,6-difluorophenylamino)-9H-purin-2-ylamino)piperidine-1-carboxylate] was > 1000 nM.

The same experiment, now with this note: Homo sapiens; Lox-IMVI melanoma cell line, anti-proliferative assay; read-out: Activity (IC50 activity level).
For the molecule `N#Cc1cc(F)c(Nc2nc3cnc(N[C@@H]4CCCN(C(=O)Nc5ccccc5)C4)nc3n2[C@H]2CC[C@@H](C(N)=O)CC2)c(Cl)c1` [Example 785, (R)-3-(9-((1s,4S)-4-carbamoylcyclohexyl)-8-(2-chloro-4-cyano-6-fluorophenylamino)-9H-purin-2-ylamino)-N-phenylpiperidine-1-carboxamide], the IC50 is > 1000 nM.
Same read-out and setting: the same measure for `C[C@]1(C(N)=O)CC[C@@H](n2c(Nc3c(F)cc(Cl)cc3F)nc3cnc(N[C@H]4CCOC[C@H]4F)nc32)CC1` [Example 721, (1R,4s)-4-(8-(4-chloro-2,6-difluorophenylamino)-2-((3S,4S)-3-fluorotetrahydro-2H-pyran-4-ylamino)-9H-purin-9-yl)-1-methylcyclohexanecarboxamide]: < 250 nM; for `Cc1ccc(S(=O)(=O)N2CCC[C@@H](Nc3ncc4nc(Nc5c(F)cc(Cl)cc5Cl)n([C@H]5CC[C@@H](C(N)=O)CC5)c4n3)C2)cc1` [Example 793, (1S,4s)-4-(8-(2,4-dichloro-6-fluorophenylamino)-2-((R)-1-tosylpiperidin-3-ylamino)-9H-purin-9-yl)cyclohexanecarboxamide]: > 1000 nM; for `NC(=O)[C@H]1CC[C@@H](n2c(Nc3c(Cl)cc(F)cc3Cl)nc3cnc(N[C@@H]4CCCN(c5ccccc5)C4)nc32)CC1` [Example 749, (1S,4s)-4-(8-(2,6-dichloro-4-fluorophenylamino)-2-((R)-1-phenylpiperidin-3-ylamino)-9H-purin-9-yl)cyclohexanecarboxamide]: > 1000 nM.
Still for that read-out and setting: the value for `CC(=O)N1CCC[C@@H](Nc2ncc3nc(Nc4c(F)cc(Cl)cc4Cl)n([C@H]4CC[C@@H](C(N)=O)CC4)c3n2)C1` [Example 711, (1S,4s)-4-(2-((R)-1-acetylpiperidin-3-ylamino)-8-(2,4-dichloro-6-fluorophenylamino)-9H-purin-9-yl)cyclohexanecarboxamide] was > 1000 nM; that for `N#Cc1cc(F)c(Nc2nc3cnc(N[C@H]4CCC[C@@H](O)C4)nc3n2[C@H]2CC[C@@H](C(N)=O)CC2)c(Cl)c1` [Example 687, (1R,4s)-4-(8-(2-chloro-4-cyano-6-fluorophenylamino)-2-((1S,3R)-3-hydroxycyclohexylamino)-9H-purin-9-yl)cyclohexanecarboxamide] was > 1000 nM.
Take `NC(=O)[C@H]1CC[C@@H](n2c(Nc3c(Cl)cc(F)cc3Cl)nc3cnc(N[C@@H]4CCCN(C(=O)Nc5ccccc5)C4)nc32)CC1` [Example 784, (R)-3-(9-((1s,4S)-4-carbamoylcyclohexyl)-8-(2,6-dichloro-4-fluorophenylamino)-9H-purin-2-ylamino)-N-phenylpiperidine-1-carboxamide]: the IC50 was > 1000 nM.
In the case of `CCN1CCC[C@@H](Nc2ncc3nc(Nc4c(Cl)cc(C#N)cc4Cl)n([C@H]4CC[C@@H](C(N)=O)CC4)c3n2)C1` [Example 733, (1S,4s)-4-(8-(2,6-dichloro-4-cyanophenylamino)-2-((R)-1-ethylpiperidin-3-ylamino)-9H-purin-9-yl)cyclohexanecarboxamide], the IC50 is > 1000 nM.
In the case of `C[C@]1(C(N)=O)CC[C@@H](n2c(Nc3c(Cl)cc(F)cc3Cl)nc3cnc(N[C@@H]4CCC[C@@H](O)C4)nc32)CC1` [Example 621, (1S,4s)-4-(8-(2,6-dichloro-4-fluorophenylamino)-2-((1R,3R)-3-hydroxycyclohexylamino)-9H-purin-9-yl)-1-methylcyclohexanecarboxamide], the IC50 was > 1000 nM.
`NC(=O)[C@H]1CC[C@@H](n2c(Nc3c(Cl)cc(Cl)cc3Cl)nc3cnc(N[C@@H]4CCCN(c5ccccc5)C4)nc32)CC1` [Example 743, (1S,4s)-4-(2-((R)-1-phenylpiperidin-3-ylamino)-8-(2,4,6-trichlorophenylamino)-9H-purin-9-yl)cyclohexanecarboxamide]: the IC50 was > 1000 nM.
